Test results reported in PubChem BioAssay (NCI).
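Cells were grown in 96-well plates and exposed to each compound for 48 hours at five concentrations; endpoints were interpolated linearly between bracketing concentrations, or set to the highest concentration if not reached. GI50: concentration for 50% inhibition of growth. TGI marks complete inhibition of growth.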

Assays:
Assay in all cases: growth of human tumour cells (NCI), 48 h
[1] = test system: M14 melanoma
[2] = test system: T-47D breast
[3] = test system: HT29 colon
[4] = test system: NCI-H23 lung
[5] = test system: UACC-257 melanoma
[6] = test system: HS 578T breast
[7] = test system: A498 renal
[8] = test system: SR leukemia
[9] = test system: COLO 205 colon
[10] = test system: MDA-MB-468 breast
[11] = test system: BT-549 breast
[12] = test system: OVCAR-5 ovarian
[13] = test system: HOP-92 NSCLC
[14] = test system: UACC-62 melanoma
[15] = test system: PC-3 prostate
[16] = test system: NCI-H522 lung
[17] = test system: DU-145 prostate
[18] = test system: OVCAR-3 ovarian
[19] = test system: SF-268 CNS
[20] = test system: SK-MEL-2 melanoma
[21] = test system: CAKI-1 renal
[22] = test system: 786-0 renal
[23] = test system: OVCAR-4 ovarian
[24] = test system: NCI-H460 lung
[25] = test system: SNB-75 CNS
[26] = test system: K-562 leukemia
[27] = test system: SK-MEL-28 melanoma
[28] = test system: HCT-15 colon
[29] = test system: SK-MEL-5 melanoma
[30] = test system: MDA-MB-435

Cn1cc(-c2cc(N)n3nc(-c4c[nH]c5ccccc45)cc3n2)c2cc(Cl)ccc21
TGI [1]: 4.93 µM | GI50 [2]: 4.44 µM | TGI [2]: 20 µM | GI50 [3]: 1.76 µM | TGI [3]: 3.43 µM | GI50 [4]: 2.45 µM | TGI [4]: 7.38 µM | GI50 [5]: 10.6 µM | TGI [5]: 23.5 µM | GI50 [6]: 4.06 µM | TGI [6]: 24.3 µM | GI50 [7]: 10.1 µM | TGI [7]: 22 µM | GI50 [8]: 0.857 µM | TGI [8]: > 100 µM | GI50 [9]: 2.17 µM | TGI [9]: 4.26 µM | GI50 [10]: 1.89 µM | TGI [10]: 4.59 µM | GI50 [11]: 16.9 µM | TGI [11]: 31.9 µM | GI50 [12]: 2.09 µM | TGI [12]: 4.81 µM | GI50 [13]: 2.73 µM | TGI [13]: 9.96 µM | GI50 [14]: 5.36 µM | TGI [14]: 18.7 µM | GI50 [15]: 3.15 µM | TGI [15]: 11.4 µM | GI50 [16]: 1.64 µM | TGI [16]: 3.43 µM | GI50 [17]: 5.69 µM | TGI [17]: 22.5 µM | GI50 [18]: 4.75 µM | TGI [18]: 29.6 µM | GI50 [19]: 5.21 µM | TGI [19]: 26.6 µM | GI50 [20]: 6.75 µM | TGI [20]: 24 µM | GI50 [21]: 2.96 µM | TGI [21]: 12.4 µM | GI50 [22]: 1.6 µM | TGI [22]: 3.2 µM | GI50 [23]: 7.3 µM | TGI [23]: 29.7 µM | GI50 [24]: 2.35 µM | TGI [24]: 5.45 µM | GI50 [25]: 4 µM | TGI [25]: 18.3 µM | GI50 [26]: 2.27 µM | TGI [26]: 5.68 µM | GI50 [27]: 7.16 µM | TGI [27]: 19.9 µM | GI50 [28]: 1.72 µM | TGI [28]: 3.29 µM | GI50 [29]: 7.16 µM | TGI [29]: 19.7 µM | GI50 [30]: 3.69 µM | TGI [30]: 13.4 µM
